Experimental data as given in patent US10150737B2, “Compounds for controlling arthropods” (priority 2013, dated 2018).

Tests used:
Tetranychus urticae = Tetranychus urticae - spray test, OP-resistant; format: in vivo; settings: bean leaf discs, after 6 days
Method in brief: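 Compound dissolved in acetone/DMF, diluted with water containing 1000 ppm alkylaryl polyglycol ether emulsifier to test concentrations. Bean leaf discs infested with all stages of spider mites were sprayed; % kill determined after 6 days (100% = all mites dead, 0% = none).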

Amblyomma hebraeum = assay: Amblyomma hebaraeum test (tick nymphs, immersion); format: in vivo; settings: application rate 100 ppm; tick nymphs immersed one minute; after 42 days
Method: Solvent: dimethyl sulphoxide
To produce an appropriate active ingredient formulation, 10 mg of active ingredient are mixed with 0.5 ml of dimethyl sulphoxide, and the concentrate is diluted with water to the desired concentration.
Tick nymphs (Amblyomma hebraeum) are placed into perforated plastic beakers and immersed in the desired concentration for one minute. The ticks are transferred on filter paper into a Petri dish and stored in a climate-controlled cabinet.
After 42 days, the kill in % is determined. 100% means that all of the ticks have been killed; 0% means that none of the ticks have been killed.

Lucilia cuprina = Lucilia cuprina test; format: in vivo; settings: application rate 100 ppm; L1 larvae; after 2 days
Method in brief: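 About 20 L1 larvae placed on minced horsemeat treated with compound, formulated in DMSO and diluted with water to test concentration. Kill in % scored after 2 days (100% = all larvae dead, 0% = none).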

Ctenocephalides felis [1] = assay: Ctenocephalides felis - in vitro contact tests with adult cat fleas; format: in vivo; settings: application rate 5 μg/cm2 (=500 g/ha); after 48 h; fleas dead or moribund
Method in brief: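 Tubes coated with compound in acetone (250 μl of 900 ppm solution gives 5 μg/cm^2 on 44.7 cm^2), solvent evaporated, then 5–10 adult fleas added and kept horizontal at room temperature and ambient humidity. After 48 h, dead or moribund (motionless/uncoordinated) fleas scored as % efficacy.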

Myzus persicae = Myzus persicae - spray test; format: in vivo; settings: application rate 100 g/ha; Chinese cabbage leaf discs; after 6 days
Method in brief: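 Chinese cabbage leaf discs carrying all stages of Myzus persicae sprayed with compound in acetone/DMF diluted in water with 1000 ppm emulsifier. Efficacy (% aphids killed) assessed after 6 days.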

Spodoptera frugiperda = Spodoptera frugiperda - spray test; format: in vivo; settings: caterpillars on maize leaf discs, after 7 days
Method in brief: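 Maize leaf discs sprayed with compound formulated in acetone/DMF and diluted in water containing 1000 ppm alkylaryl polyglycol ether emulsifier, then infested with armyworm caterpillars after drying. Efficacy scored after 7 days as % caterpillars killed (100% all, 0% none).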

[2] = logP determination by HPLC on a reversed-phase column (C18); format: physicochemical; settings: for logP^a): HPLC-MS method a); for log P: HPLC-MS
Boophilus microplus = Boophilus microplus - injection test; format: in vivo; settings: application rate 20 μg/animal; injection into engorged adult female ticks; after 7 days
Method in brief: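 Active ingredient in DMSO, 1 μl injected into the abdomen of 5 engorged adult female ticks, then held in a climate-controlled room. Efficacy scored after 7 days from laying of fertile eggs, with non-fertile-looking eggs kept about 42 days for larval hatch; 100% means no fertile eggs.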

Ctenocephalides felis [3] = assay: Ctenocephalides felis - oral test; format: in vivo; settings: application rate 100 ppm in citrated cattle blood; after 2 days
Method in brief: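 Compound in DMSO diluted into citrated cattle blood, fed through a parafilm membrane to about 20 unfed adult cat fleas. Kill in % scored after 2 days (100% = all dead).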

[4] = tested on: Boophilus microplus Parkhurst strain, SP-resistant; assay: Boophilus microplus - dip test; format: in vivo; settings: application rate 100 ppm; dip of engorged adult female ticks; after 7 days
Method in brief: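 SP-resistant Parkhurst strain engorged adult female Boophilus microplus (8-10 per tube) dipped in DMSO-based compound dilutions in water, then kept in a climate-controlled room. Efficacy scored after 7 days from fertile egg laying, with larval hatch checked after about 42 days; 100% means no fertile eggs.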

Musca domestica = Musca domestica test; format: in vivo; settings: application rate 100 ppm; adult houseflies; after 2 days
Method in brief: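 Compound dissolved in DMSO (10 mg per 0.5 ml) and diluted with water to the test concentration. Sponges soaked with sugar solution plus formulation were offered to 10 adult houseflies per vessel. Mortality (% kill, 100% = all dead, 0% = none) scored after 2 days.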

Phaedon cochleariae = Phaedon cochleariae - spray test; format: in vivo; settings: larvae on Chinese cabbage leaf discs, after 7 days
Method in brief: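 Chinese cabbage leaf discs sprayed with compound formulated in acetone/DMF and water containing 1000 ppm emulsifier; once dry, infested with mustard beetle larvae. Efficacy (% larvae killed) scored after 7 days.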

Rhipicephalus sanguineus = Rhipicephalus sanguineus - in vitro contact tests with adult brown dog ticks; format: in vivo; settings: application rate 5 μg/cm2; after 48 h; ticks dead or moribund
Method: For the coating of the test tubes, 9 mg of active ingredient are first dissolved in 1 ml of acetone p.a. and then diluted to the desired concentration with acetone p.a. 250 μl of the solution are distributed homogeneously on the inner walls and base of a 25 ml test tube by turning and rocking on an orbital shaker (rocking rotation at 30 rpm for 2 h). With 900 ppm active ingredient solution and internal surface 44.7 cm^2, given homogeneous distribution, an area-based dose of 5 μg/cm^2 is achieved.
After the solvent has evaporated off, the tubes are populated with 5-10 adult dog ticks (Rhipicephalus sanguineus), sealed with a perforated plastic lid and incubated in a horizontal position in the dark at room temperature and ambient humidity. After 48 h, efficacy is determined. To this end, the ticks are knocked to the floor of the tube and incubated on a hotplate at 45-50° C. for not more than 5 min. Ticks which remain motionless on the floor or move in such an uncoordinated manner that they are unable to deliberately avoid the heat by climbing upwards are considered to be dead or moribund.
An efficacy of 100% means that all the ticks were dead or moribund. 0% efficacy means that none of the ticks had been harmed.

[5] = reversed-phase column (C18), Table I-T3

| SMILES | efficacy (Tetranychus urticae; application rate 500 g/ha) [%] | efficacy (kill) (Amblyomma hebraeum) [%] | efficacy (kill) (Lucilia cuprina) [%] | efficacy (Ctenocephalides felis [1]) [%] | efficacy (Myzus persicae) [%] | efficacy (Spodoptera frugiperda; application rate 500 g/ha) [%] | logP^a) ([2]; reversed-phase column (C18)) | log P [2, 5] | efficacy (laying of fertile eggs) (Boophilus microplus) [%] | efficacy (kill) (Ctenocephalides felis [3]) [%] | efficacy (laying of fertile eggs) [4] [%] | efficacy (kill) (Musca domestica) [%] | efficacy (Phaedon cochleariae; application rate 500 g/ha) [%] | efficacy (Tetranychus urticae; application rate 100 g/ha) [%] | efficacy (Spodoptera frugiperda; application rate 100 g/ha) [%] | efficacy (Rhipicephalus sanguineus) [%] | efficacy (Phaedon cochleariae; application rate 100 g/ha) [%] | logP^a) [2] | logP^a) [2, 5] | logP ([2]; HPLC, C18 reversed phase, acetonitrile/water with formic acid, EEC Directive 79/831 Annex V.A8) |
| --- | --- | --- | --- | --- | --- | --- | --- | --- | --- | --- | --- | --- | --- | --- | --- | --- | --- | --- | --- | --- |
| Cc1cc(C(F)(C(F)(F)F)C(F)(F)F)cc(C)c1-n1cc(-c2cnc(Cl)c(C(=O)N(C)C3CC3)c2)cn1 [I-T3-101] | 100 | 95 | 100 | 100 | 100 | 83 | 4.4 | 4.4 | 100 | 100 | 100 | 100 | 100 |  |  |  |  |  |  |  |
| CN(C(=O)c1cc(-c2cnn(-c3c(Cl)cc(C(F)(C(F)(F)F)C(F)(F)F)cc3Cl)c2)cnc1Cl)C1(C#N)CC1 [I-T3-102] | 90 | 90 | 100 | 100 |  | 100 | 4.3 | 4.3 | 100 | 100 | 100 | 100 | 100 |  |  |  |  |  |  |  |
| N#CC1(NC(=O)c2cc(-c3cnn(-c4c(Br)cc(C(F)(C(F)(F)F)C(F)(F)F)cc4C(F)(F)F)c3)cnc2Cl)CC1 [I-T3-165] |  |  | 100 | 100 | 100 |  |  | 3.9 | 100 | 100 | 100 | 100 |  | 100 | 100 | 100 | 100 |  |  |  |
| Cc1cc(C(F)(C(F)(F)F)C(F)(F)F)cc(I)c1-n1cc(-c2ccc(Cl)c(C(=O)NC3CC3)c2)cn1 [I-T3-175] |  |  | 100 | 100 | 100 |  |  | 4.5 | 100 | 100 | 100 | 100 |  | 100 | 100 | 100 | 100 |  |  |  |
| Cc1cc(C(F)(C(F)(F)F)C(F)(F)F)cc(I)c1-n1cc(-c2ccc(Cl)c(C(=O)NC3(C#N)CC3)c2)cn1 [I-T3-176] |  |  | 100 | 100 | 100 |  |  | 4.4 | 100 | 100 | 100 | 100 |  | 100 | 100 | 100 | 100 |  |  |  |
| Cc1cc(C(F)(C(F)(F)F)C(F)(F)F)cc(Br)c1-n1cc(-c2ccc(Cl)c(C(=O)NC3CC3)c2)cn1 [I-T3-86] |  | 100 | 100 | 100 |  |  |  |  | 100 | 100 | 100 | 100 |  | 100 | 100 |  | 100 | 4.5 | 4.5 |  |
| Cc1ncc(-c2cnn(-c3c(Cl)cc(C(F)(C(F)(F)F)C(F)(F)F)cc3C(F)(F)F)c2)cc1C(=O)NC1(C#N)CC1 [I-T3-125] |  | 100 | 100 | 100 | 100 |  | 3.8 | 3.8 | 100 | 100 | 100 | 100 |  | 100 | 100 |  |  |  |  |  |
| Cc1cc(C(F)(C(F)(F)F)C(F)(F)F)cc(C(F)(F)F)c1-c1cc(-c2ccc(Cl)c(C(=O)NC3CC3)c2)on1 [I-T22-5] |  |  | 100 | 100 | 100 |  |  |  | 100 | 100 | 100 | 100 |  | 100 | 100 | 100 | 100 |  |  | 4.9 |
| N#CC1(NC(=O)c2cc(-c3cnn(-c4c(Cl)cc(C(F)(F)F)cc4Cl)c3)cnc2Cl)CC1 [I-T3-95] |  | 100 |  | 100 | 90 |  |  | 3.1 | 100 | 100 | 100 |  |  | 100 | 100 |  | 100 | 3.1 |  |  |
| N#CC1(NC(=O)c2cc(-c3cnn(-c4c(Cl)cc(C(F)(C(F)(F)F)C(F)(F)F)cc4C(F)(F)F)c3)ccc2Cl)CC1 [I-T3-57] |  | 100 | 100 | 100 |  |  |  |  | 100 | 100 | 100 | 100 |  | 100 | 100 |  | 100 | 4.3 | 4.3 |  |
| Cc1cc(C(F)(C(F)(F)F)C(F)(F)F)cc(C(F)(F)F)c1-n1cc(-c2cnc(Cl)c(C(=O)N(C)C3(C#N)CC3)c2)cn1 [I-T3-111] |  | 80 | 100 | 100 |  | 100 | 4.4 | 4.4 | 100 | 100 | 98 | 100 | 100 | 90 |  |  |  |  |  |  |
| O=C(NC1CC1)c1cc(-c2cnn(-c3c(Br)cc(C(F)(C(F)(F)F)C(F)(F)F)cc3C(F)(F)F)c2)cnc1Cl [I-T3-160] |  |  | 100 | 100 | 90 |  | 4.0 | 4.0 | 100 | 100 | 100 | 100 |  | 100 | 100 | 100 | 100 |  |  |  |
